According to patent US7851637B2, “Compounds and methods for inhibiting the interaction of BCL proteins with binding partners” (Infinity Pharmaceuticals, Inc., priority 2004, dated 2010):
Read-outs that look alike come from different tables or passages of the source.

Tests used:
[1] = system: RL Human Follicular Lymphoma Cell Line; experiment: Alamar blue cytotoxicity assay in RL cells; type: cell-based; details: Homo sapiens, 72 h incubation, read-out: Bcl RL Alamar Blue IC50
Description: (§1) When RL-cells are exposed to isoxazolidine compounds of the present invention, the inhibitors show a dose-dependent cell-killing in the Alamar blue cytoxicity assay with IC50 values of from about 100 μM to about 1 μM (See Examples). When Panc1 cells are exposed to the isoxazolidine compounds of the present invention in combination with camptothecin, the inhibitors show a synergistic dose-dependent cell killing in the propidium iodide exclusion cell survival assay with IC50 values of from about 100 μM to about 1 μM (See Examples).
• 1) Using 96 well plates, compounds were serially diluted in DMSO from 9 mM to 4 uM • 2) Assay plates were prepared by diluting samples 310 fold into 150 ul of medium containing 30,000 cells/well resulting in a final DMSO concentration of 0.3% and a concentration range from 29 uM to 0.013 uM for each compound. • 3) Plates were incubated at 37 C and 5% CO2 for 72 h • 4) After 72 h, Alamar blue reagent was added to each well and plates read according to manufacturer's instructions
In vitro cytotoxicity data for RL cells is presented below for various compounds of the invention.

[2] = molecular target: Bcl-2 (Homo sapiens, UniProt P10415); experiment: Bcl-2 binding affinity analysis (fluorescence polarization binding assay)
How it was run: (§2)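 In vitro measurement of compound binding to each protein by fluorescence polarization, described as sensitive and quantitative.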

[3] = molecular target: Bcl-xL (Homo sapiens, UniProt Q07817); experiment: Bcl-xL binding affinity analysis (fluorescence polarization binding assay); design: scale not given here
How it was run: as §2

[4] = system: Human Pancreatic Cancer Cell Line Panc1; experiment: Cell death assay (propidium iodide/Hoechst) in Panc1 cells with or without camptothecin; type: cell-based; details: 72 hours, % cell death by propidium iodide/Hoechst
Description: as §1
• 1) Compounds were serially diluted in DMSO from a 9 mM stock to a final concentration of 0.004 mM in a 96 well plate. • 2) Assay plates were prepared by diluting compounds 310 fold into 150 ul of medium containing 10,000 cells/well, with or without 3 uM Camptothecin, resulting in a final DMSO concentration of 0.3% and a compound concentration range from 29 uM to […] for each compound. • 3) Assay plates were incubated at 37 C, 5% CO2 for 72 hours. • 4) After 72 hours, propidium iodide and Hoechst dye were added to each well according to manufacturer's instruction. • 5) Plates were imaged on a fluorescence microscope at wavelengths Ex560/Em650 (Propidium iodide) and Ex360/Em465 (Hoechst) • 6) MetaMorph imaging software was used to determine % cell death by dividing the number of propidium iodide stained cells (dead cells) by the number of Hoechst stained cells (all cells), multipled by 100, in each field.
Panc1 invitro cellular data is presented below for various compounds of the invention.

[5] = Homo sapiens, PANC-1, without camptothecin, read-out: Panc1 − Cpt IC50
[6] = with 3 uM Camptothecin, read-out: Panc1 + Cpt IC50
[7] = without camptothecin, read-out: Panc1 − Cpt IC50

Sequence of Bcl-2 (P10415 whole entry): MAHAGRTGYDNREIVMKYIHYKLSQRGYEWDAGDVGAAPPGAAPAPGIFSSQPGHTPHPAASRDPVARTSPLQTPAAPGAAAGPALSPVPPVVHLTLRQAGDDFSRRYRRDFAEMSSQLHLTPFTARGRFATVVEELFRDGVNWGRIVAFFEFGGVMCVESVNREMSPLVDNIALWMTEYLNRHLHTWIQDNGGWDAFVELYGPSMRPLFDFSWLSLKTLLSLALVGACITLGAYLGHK
Sequence of Bcl-xL (Q07817 whole entry): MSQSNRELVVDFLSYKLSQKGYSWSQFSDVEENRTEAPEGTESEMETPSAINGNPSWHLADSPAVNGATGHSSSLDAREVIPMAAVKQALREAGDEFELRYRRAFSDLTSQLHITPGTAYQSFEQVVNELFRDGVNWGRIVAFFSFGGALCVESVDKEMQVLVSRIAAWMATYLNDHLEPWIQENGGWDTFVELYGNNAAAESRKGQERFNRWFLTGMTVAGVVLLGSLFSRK

Structure (SMILES)	IC50 [1]	Ki [2]	Bcl-XL binding affinity Ki [3]	IC50 [4, 5]	IC50 [4, 6]	IC50 [4, 7]
COC(=O)CCNC(=O)c1cccc(-c2cccc(CN3O[C@@H](CO)[C@@H]([C@H](C)O)[C@H]3C(=O)N[C@H]3C[C@H]4C[C@@H]([C@@H]3C)C4(C)C)c2)c1 [Compound 190]	2000 to 5000 nM	–	–	–	–	–
CC(C)C[C@@H](CN(C)C)N(Cc1cccc(CN2O[C@@H](CO)C([C@H](C)O)[C@H]2C(=O)N[C@H]2C[C@H]3C[C@@H]([C@@H]2C)C3(C)C)c1)Cc1c(Cl)cccc1[N+](=O)[O-] (stereo partly drawn) [Compound 322]	2000 to 5000 nM	< 800 nM	♯	–	–	–
CC(C)CC(CN(C)C)N(Cc1cccc(CN2OC(CO)C(C(C)O)C2C(=O)NC2CC3CC(C2C)C3(C)C)c1)Cc1ccc(F)cc1C(F)(F)F (stereo not drawn) [Compound 323]	> 5000 nM	< 800 nM	♯	–	–	–
COc1cccc(OC)c1CN(Cc1cccc(CN2OC(CO)C(C(C)O)C2C(=O)NC2CC3CC(C2C)C3(C)C)c1)C(CC(C)C)CN(C)C (stereo not drawn) [Compound 324]	< 2000 nM	< 800 nM	♯	–	–	–
CC(C)CC(CN(C)C)N(Cc1cccc(CN2OC(CO)C(C(C)O)C2C(=O)NC2CC3CC(C2C)C3(C)C)c1)Cc1cccc(C(F)(F)F)c1 (stereo not drawn) [Compound 326]	2000 to 5000 nM	< 800 nM	♯	–	–	–
CC(C)CC(CN(C)C)N(Cc1ccc(C(F)(F)F)cc1)Cc1cccc(CN2OC(CO)C(C(C)O)C2C(=O)NC2CC3CC(C2C)C3(C)C)c1 (stereo not drawn) [Compound 327]	< 2000 nM	< 800 nM	♯	–	–	–
CC(O)C1C(CO)ON(Cc2cccc(CN(CCN(C)C)Cc3ccccc3-c3ccccc3)c2)C1C(=O)NC1CC2CC(C1C)C2(C)C (stereo not drawn) [Compound 340]	2000 to 5000 nM	< 800 nM	♯	–	–	–
CCc1ccccc1CN(CCN(C)C)Cc1cccc(CN2OC(CO)C(C(C)O)C2C(=O)NC2CC3CC(C2C)C3(C)C)c1 (stereo not drawn) [Compound 349]	< 2000 nM	< 800 nM	♯	–	–	–
COc1ccccc1CN(CCN(C)C)Cc1cccc(CN2OC(CO)C(C(C)O)C2C(=O)NC2CC3CC(C2C)C3(C)C)c1 (stereo not drawn) [Compound 351]	2000 to 5000 nM	< 800 nM	♯	–	–	–
CC(O)C1C(CO)ON(Cc2cccc(CN(CCN(C)C)Cc3ccccc3F)c2)C1C(=O)NC1CC2CC(C1C)C2(C)C (stereo not drawn) [Compound 352]	2000 to 5000 nM	< 800 nM	♯	–	–	–
CCCCCCCN(CCN(C)C)Cc1cccc(CN2O[C@@H](CO)C([C@H](C)O)[C@H]2C(=O)N[C@H]2C[C@H]3C[C@@H]([C@@H]2C)C3(C)C)c1 (stereo partly drawn) [Compound 355]	2000 to 5000 nM	< 800 nM	♯	–	–	–
CC(O)C1C(CO)ON(Cc2cccc(CN(CCN(C)C)Cc3cccc(F)c3)c2)C1C(=O)NC1CC2CC(C1C)C2(C)C (stereo not drawn) [Compound 356]	> 5000 nM	< 800 nM	♯	–	–	–
CC(O)C1C(CO)ON(Cc2cccc(CN(CCN(C)C)Cc3cccc(Cl)c3)c2)C1C(=O)NC1CC2CC(C1C)C2(C)C (stereo not drawn) [Compound 361]	2000 to 5000 nM	< 800 nM	♯	–	–	–
CC(O)C1C(CO)ON(Cc2cccc(CN(CCN3CCCC3)Cc3ccccc3)c2)C1C(=O)NC1CC2CC(C1C)C2(C)C (stereo not drawn) [Compound 430]	–	< 800 nM	♯	> 2500 nM	> 2500 nM	–
CC(O)C1C(CO)ON(Cc2cccc(CN(CCN3CCCCC3)Cc3ccccc3)c2)C1C(=O)NC1CC2CC(C1C)C2(C)C (stereo not drawn) [Compound 433]	–	< 800 nM	♯	> 2500 nM	> 2500 nM	–
CC(O)C1C(CO)ON(Cc2cccc(CN(CCN3CCOCC3)Cc3ccccc3)c2)C1C(=O)NC1CC2CC(C1C)C2(C)C (stereo not drawn) [Compound 434]	–	< 800 nM	♯	> 2500 nM	> 2500 nM	–

Structure (SMILES)	IC50 [1]	Ki [2]	Bcl-XL binding affinity Ki [3]	IC50 [4, 5]	IC50 [4, 6]	IC50 [4, 7]
CC(O)C1C(CO)ON(Cc2cccc(CNC(CN(C)C)C3CCCCC3)c2)C1C(=O)NC1CC2CC(C1C)C2(C)C (stereo not drawn) [Compound 443]	–	< 800 nM	♯	> 2500 nM	> 2500 nM	–
CC(O)C1C(CO)ON(Cc2cccc(CNC(CC3CCCCC3)CN(C)C)c2)C1C(=O)NC1CC2CC(C1C)C2(C)C (stereo not drawn) [Compound 451]	–	< 800 nM	♯	–	–	> 2500 nM
CC(O)C1C(CO)ON(Cc2cccc(CNC(CN(C)C)c3ccccc3)c2)C1C(=O)NC1CC2CC(C1C)C2(C)C (stereo not drawn) [Compound 452]	–	< 800 nM	♯	> 2500 nM	> 2500 nM	–
CC(O)C1C(CO)ON(Cc2cccc(CNC(Cc3ccccc3)CN(C)C)c2)C1C(=O)NC1CC2CC(C1C)C2(C)C (stereo not drawn) [Compound 454]	–	< 800 nM	♯	> 2500 nM	> 2500 nM	–
CC(O)C1C(CO)ON(Cc2cccc(CNC(CN(C)C)CC(C)(C)C)c2)C1C(=O)NC1CC2CC(C1C)C2(C)C (stereo not drawn) [Compound 455]	–	< 800 nM	♯	> 2500 nM	> 2500 nM	–
CC(C)C(CN(C)C)NCc1cccc(CN2OC(CO)C(C(C)O)C2C(=O)NC2CC3CC(C2C)C3(C)C)c1 (stereo not drawn) [Compound 462]	–	< 800 nM	♯	> 2500 nM	> 2500 nM	–
CC(C)C(CN(C)C)NCc1cccc(CN2OC(CO)C(C(C)O)C2C(=O)NC2CC3CC(C2C)C3(C)C)c1 (stereo not drawn) [Compound 463]	–	< 800 nM	♯	–	–	> 2500 nM
CC(O)C1C(CO)ON(Cc2cccc(CN(C)C(Cc3ccccc3)CN(C)C)c2)C1C(=O)NC1CC2CC(C1C)C2(C)C (stereo not drawn) [Compound 464]	–	< 800 nM	♯	> 2500 nM	> 2500 nM	–
COc1c(CN2O[C@@H](CO)[C@@H]([C@H](C)O)[C@H]2C(=O)N[C@H]2C[C@H]3C[C@@H]([C@@H]2C)C3(C)C)cccc1-c1cccc(C(=O)N[C@H](CN(C)C)CC(C)(C)C)c1 [Compound 479]	–	< 800 nM	♯	1800 to 2500 nM	1300 to 1800 nM	–
COc1c(CN2O[C@@H](CO)[C@@H]([C@H](C)O)[C@H]2C(=O)N[C@H]2C[C@H]3C[C@@H]([C@@H]2C)C3(C)C)cccc1-c1cccc(C(=O)N[C@H](CC2CCCCC2)CN(C)C)c1 [Compound 489]	–	< 800 nM	♯	> 2500 nM	1800 to 2500 nM	–
CCOc1c(CN2O[C@@H](CO)[C@@H]([C@H](C)O)[C@H]2C(=O)N[C@H]2C[C@H]3C[C@@H]([C@@H]2C)C3(C)C)cccc1-c1cccc(C(=O)N[C@H](CC(C)C)CN(C)C)c1 [Compound 494]	–	< 800 nM	♯	> 2500 nM	> 2500 nM	–
CCOc1c(CN2O[C@@H](CO)[C@@H]([C@H](C)O)[C@H]2C(=O)N[C@H]2C[C@H]3C[C@@H]([C@@H]2C)C3(C)C)cccc1-c1cccc(C(=O)NCCN(C)C)c1 [Compound 495]	–	< 800 nM	♯	> 2500 nM	> 2500 nM	–
C[C@@H]1[C@@H](NC(=O)[C@@H]2[C@H]([C@H](C)O)[C@H](CO)ON2Cc2cccc(-c3cccc(C(=O)NCCN(C)C)c3)c2OCC2CC2)C[C@H]2C[C@@H]1C2(C)C [Compound 497]	–	< 800 nM	♯	> 2500 nM	> 2500 nM	–
CC(O)C1C(CO)ON(Cc2cccc(C(=O)NC(CC3CCCCC3)CN(C)C)c2)C1C(=O)NC1CC2CC(C1C)C2(C)C (stereo not drawn) [Compound 501]	–	< 800 nM	♯	1800 to 2500 nM	1300 to 1800 nM	–
CC(O)C1C(CO)ON(Cc2cccc(C(=O)NC(Cc3ccccc3)CN(C)C)c2)C1C(=O)NC1CC2CC(C1C)C2(C)C (stereo not drawn) [Compound 508]	–	< 800 nM	♯	> 2500 nM	> 2500 nM	–
C[C@@H]1[C@@H](NC(=O)[C@@H]2[C@H]([C@H](C)O)[C@H](CO)ON2Cc2cccc(N(CCc3ccccc3)CCN(C)C)c2)C[C@H]2C[C@@H]1C2(C)C [Compound 578]	–	< 800 nM	♯	> 2500 nM	1800 to 2500 nM	–
